The assay relates to Mefv^V726/V726 mouse model. Briefly: Familial Mediterranean Fever Mefv V726/V726 mouse model. It counts as in vivo. To be noted: for weight (weight loss / weight gain): diet containing dimethyl fumarate (100 mg/kg/day; 0.1% DMF) for 6 weeks; for GSDMD-N (GsdmD-p30) formation in spleen: immunoblot. The protocol:
FIGS. 15A-E. Fumarate alleviates FMF. (A-D) Weight gain (A), spleen weight (B), ELISA of serum IL-1B and immunoblot of spleen GSDMD (D) liver H&E (E) from Mefv726/726 receiving vehicle diet or a diet containing dimethyl fumarate (100 mg/kg/day) for 6 weeks. Data points indicative of individual mice. *, P<0.05 ***, P<0.001 (t-test or Two-way ANOVA). Error bars show means±SEM.
All animal experiments were approved by the Institutional Animal Care Use Committees at the University of Massachusetts Medical School. Animal were kept in specific pathogen free (SPF) environment. Male and female C57/BL6 and Gsdmd−/− mice were used. Gsdmd−/− mice were generated as previously described (22). MefvV726/V726 mice were a gift from Prof. Daniel Kastner (23). Sample sizes used are in line with other similar published studies. All animals were used at age 8-12 weeks.
DMF embedded mouse diet was formulated by Lab Diets®. DMF was added to a base diet of laboratory lab diet 5001 at a dose 100 mg/kg/day of consumption. Mice received the control base diet or the DMF containing diet for 6 weeks.
In general terms: A western blot detects proteins with antibodies after separation by electrophoresis.

[1] abbreviates: diet containing dimethyl fumarate for 6 weeks.
[2] abbreviates: diet containing dimethyl fumarate for 6 weeks, listed as DMF.

Where a name gives a salt, the structure may show the parent alone.

Consider `COC(=O)/C=C/C(=O)OC` [Fumarate, Dimethyl fumarate], for which the “weight (weight loss / weight gain)” value is “alleviated”. The “weight (weight loss / weight gain)” value (listed as DMF) is listed as “increased weight”. For the same molecule, under setting [1], the “IL-1β secretion (serum)” value is on record as “alleviated”, the “spleen size (splenomegaly)” value is “alleviated” and the “GSDMD-N (GsdmD-p30) formation in spleen” value is given as “alleviated”. The liver pathology entry (diet containing dimethyl fumarate for 6 weeks, H&E) is listed as “alleviated”. Besides, under setting [2], the “GSDMD-N (GsdmD-p30) formation in spleen” value is given as “reduced levels” and the “spleen size (splenomegaly)” value was “reduced spleen size”. Moreover, under “diet including 0.1% DMF”, the “fibrosis of liver and lung” value is reported as “reduction in fibrosis”; the runting entry is “rescue of runting”.

Source of the values: US20230233500A1, “Gasdermin D (GSDMD) Succination for the Treatment of Inflammatory Disease” (University of Massachusetts, priority 2020, published 2023).
